Assay results taken from patent publication US9150543B2, “Substituted indolyl alkyl amino derivatives as inhibitors of histone deacetylase” (Janssen Pharmaceutica N. V., priority 2004, dated 2015).
Converted amounts (≈) assume the structure as drawn. Where two headings read alike, the source gives them in different places.

Experiments:
[1] = target: histone deacetylase (HeLa nuclear extracts); experiment: In vitro assay for inhibition of histone deacetylase with [3H]-labelled substrate (C.1.a); type: biochemical; details: [3H]-acetylated histone H4 peptide substrate
Experimental: As a substrate for measuring HDAC activity a synthetic peptide, i.e. the amino acids 14-21 of histone H4, was used. The substrate is biotinylated at the NH2-terminal part with a 6-aminohexanoic acid spacer, and is protected at the COOH-terminal part by an amide group and specifically [^3H]acetylated at lysine 16. The substrate, biotin-(6-aminohexanoic)Gly-Ala-([^3H]-acetyl-Lys-Arg-His-Arg-Lys-Val-NH2), was added in a buffer containing 25 mM Hepes, 1 M sucrose, 0.1 mg/ml BSA and 0.01% Triton X-100 at pH 7.4. After 30 min the deacetylation reaction was terminated by the addition of HCl and acetic acid. (final concentration 0.035 mM and 3.8 mM respectively). After stopping the reaction, the free ^3H-acetate was extracted with ethylacetate. After mixing and centrifugation, the radioactivity in an aliquot of the upper (organic) phase was counted in a β-counter.
For each experiment, controls (containing HeLa nuclear extract and DMSO without compound), a blank incubation (containing DMSO but no HeLa nuclear extract or compound) and samples (containing compound dissolved in DMSO and HeLa nuclear extract) were run in parallel. In first instance, compounds were tested at a concentration of 10^−5M. […] In each test the blank value was subtracted from both the control and the sample values. The control sample represented 100% of substrate deactylation. For each sample the radioactivity was expressed as a percentage of the mean value of the controls. […] Herein the effects of test compounds are expressed as pIC50 (the negative log value of the IC50-value) (see Table F-3).

[2] = test system: A2780 ovarian carcinoma cells; experiment: Antiproliferative activity on A2780 cells, MTT (C.2); type: cell-based; details: Homo sapiens, 96 h, four days of incubation, read-out: Cellular activity pIC50 C.2 (converted)
Experimental: All compounds tested were dissolved in DMSO and further dilutions were made in culture medium. Final DMSO concentrations never exceeded 0.1% (v/v) in cell proliferation assays. Controls contained A2780 cells and DMSO without compound and blanks contained DMSO but no cells. MTT was dissolved at 5 mg/ml in PBS. A glycine buffer comprised of 0.1 M glycine and 0.1 M NaCl buffered to pH 10.5 with NaOH (1N) was prepared (all reagents were from Merck).
The human A2780 ovarian carcinoma cells (a kind gift from Dr. T. C. Hamilton [Fox Chase Cancer Centre, Pennsylvania, USA]) were cultured in RPMI 1640 medium supplemented with 2 mM L-glutamine, 50 μg/ml gentamicin and 10% fetal calf serum. Cells were routinely kept as monolayer cultures at 37° C. in a humidified 5% CO2 atmosphere. Cells were passaged once a week using a trypsin/EDTA solution at a split ratio of 1:40. All media and supplements were obtained from Life Technologies. Cells were free of mycoplasma contamination as determined using the Gen-Probe Mycoplasma Tissue Culture kit (supplier: BioMerieux).
Cells were seeded in NUNC™ 96-well culture plates (Supplier: Life Technologies) and allowed to adhere to the plastic overnight. Densities used for plating were 1500 cells per well in a total volume of 200 μl medium. After cell adhesion to the plates, medium was changed and drugs and/or solvents were added to a final volume of 200 μl. Following four days of incubation, medium was replaced by 200 μl fresh medium and cell density and viability was assessed using an MTT-based assay. To each well, 25 μl MTT solution was added and the cells were further incubated for 2 hours at 37° C. The medium was then carefully aspirated and the blue MTT-formazan product was solubilized by addition of 25 μl glycine buffer followed by 100 μl of DMSO. […] Within an experiment, the results for each experimental condition are the mean of 3 replicate wells. For initial screening purposes, compounds were tested at a single fixed concentration of 10^−6 M. For active compounds, the experiments were repeated to establish full concentration-response curves. For each experiment, controls (containing no drug) and a blank incubation (containing no cells or drugs) were run in parallel. The blank value was subtracted from all control and sample values. For each sample, the mean value for cell growth (in absorbance units) was expressed as a percentage of the mean value for cell growth of the control. […] Herein the effects of test compounds are expressed as pIC50 (the negative log value of the IC50-value)(see Table F-3).

[3] = Metabolic stability with rat hepatocytes cell culture (C.5.b); type: in vitro ADME; details: 5 μM
Experimental: Rat hepatocytes were isolated from male Sprague Dowley rats. The compounds were dissolved to a 5 mM stock solution in 100% DMSO and incubated at a final concentration of 5 μM for 0, 15, 30, 60 and 120 min with rat hepatocyte cell cultures (0.5 million viable cells/0.5 ml) using 24-well plates.
Samples were prepared for LC-MS by addition of two volumes of DMSO. The samples were thoroughly shaken and subsequently centrifuged at 900 g for 10 min (room temperature). All experiments were performed in triplicate. Of the resulting supernatant 50 μl was analysed by LC-MS.
For LC-MS, elution of samples was performed on a Hypersil BDS C18 column (50×4.6 mm, 5 μm, Thermohypersil, UK). The HPLC system comprised a Surveyor delivery system (Surveyor Inc., San Jose, US) equipped with a Surveyor autosampler device. Elution was with buffer A (10 mM ammoniumacetate (pH 6.9) in H2O/Acetonitrile (95:5)) and solvent B (acetonitrile) at a flow rate of 1.2 ml/min. The gradient employed was 0.5 min solvent A as start condition followed by increasing the organic phase concentration from 0% B till 95% B over 2 min in a linear fashion. This phase was kept stationary for a further 2 min and reduced again to 0% B within 0.5 min.
Total injection volume of samples was 50 μL. Column oven temperature was kept at 40° C. The LC flow was splitted for MS detection and 0.1 ml let into the source. An triple quadrupol mass spectrometer TSQ Quantum (Thermofinnigan, LaJolla, USA) mass spectrometer fitted with an ESI source was used for detection. Source voltage was set at 3800 volt, the capillary temperature at 300° C. The mass spectrometer was operated in positive ion mode in SIM adjusted to the mass of M+H with a scan width of 1 Da for quantification purposes. Instrument control, data acquisition and processing were performed using the Xcalibur software (ThermoFinnigan, San Jose, Calif., U.S.A). The metabolic stability of compounds in rat hepatocytes was expressed as in vitro half-lives.

[4] = test system: p21 promoter reporter A2780 tumour in nude mice; experiment: p21 promoter induction, in vivo method, tumour fluorescence (C.6.c); details: 20-40 mpk orally or intravenously daily during 6 days, ranked inactive, weaker, identical or better than R306465
Experimental: Another method tests the capacity of compounds to induce p21 as the consequence of HDAC inhibition at the cellular level. […] The reporter gene is a fluorescent protein and the expression of the reporter gene is measured as the amount of fluorescent light emitted (see example C.6.b.). The last method is an in vivo method wherein mice are used for screening the pharmaceutical activity of a compound. The above described stably transformed tumour cells can be administered to mice in an amount sufficient to effect production of a tumour. After the tumour cells had sufficient time to form a tumour, a potentially active compound can be administered to the animals and the effect of said compound on the tumour cells is evaluated by measuring the expression of the reporter gene. Incubation with pharmaceutical active compounds will result in an increase of reporter gene expression compared to the control levels (see example C.6.c.)
A selected clone was injected subcutaneous (10^7 cells/200 μl) into the flank of nude mice and a calliper measurable tumour was obtained after 12 days. […] Tumours were evaluated for fluorescence by the in-house developed Automated Whole Body Imaging System (Fluorescent stereomicroscope type Olympus® SZX12 equipped with a GFP filter and coupled to a CCD camera type JAI® CV-M90 controlled by a software package based on the IMAQ Vision Software from National Instruments®). […]

[5] = not given; remark: listed apart in the source
[6] = target: histone deacetylase (HeLa nuclear extracts); experiment: In vitro assay for inhibition of histone deacetylase with fluorescent-labelled substrate (C.1.b); type: biochemical; details: Fluor de Lys substrate
Experimental: The HDAC Fluorescent Activity Assay/Drug Discovery Kit of Biomol (cat.No: AK-500-0001) was used. The HDAC Fluorescent Activity Assay is based on the Fluor de Lys (Fluorogenic Histone deAcetylase Lysyl) substrate and developer combination. The Fluor de Lys substrate, comprises an acetylated lysine side chain. Deacetylation of the substrate sensitizes the substrate so that, in the second step, treatment with the Fluor de Lys developer produces a fluorophore.
After 30 min, 1 volume of the developer was added. […] For each experiment, controls (containing HeLa nuclear extract and buffer), a blank incubation (containing buffer but no HeLa nuclear extract) and samples (containing compound dissolved in DMSO and further diluted in buffer and HeLa nuclear extract) were run in parallel. In first instance, compounds were tested at a concentration of 10^−5M. […] All sample were tested 4 times. In each test the blank value was subtracted from both the control and the sample values. The control sample represented 100% of substrate deactylation. For each sample the fluorescence was expressed as a percentage of the mean value of the controls. […] Herein the effects of test compounds are expressed as pIC50 (the negative log value of the IC50-value) (see Table F-3).

[7] = Solubility/stability at different pH's, chemiluminescent nitrogen detector (C.3.b); type: physicochemical; details: aqueous buffer; pH = 2.3
Source text: In a second method the solubility of a compound at different pH's can be measured with the use of a Chemiluminescent Nitrogen Detector (see example C.3.b).
The solubility of a compound, at different pH's, can also be measured with the use of a chemiluminescent nitrogen detector. (see Table F-3).

Structure (SMILES)	IC50 [2]	melting point [5]	Enzymatic activity pIC50 C.1.b [6]	other results
Cn1cc(CNCC2CCN(c3ncc(C(=O)NO)cn3)CC2)c2ccccc21 [Compound 1]	–	–	–	in vitro half-live [3]: 81 min; tumour fluorescence ranking versus R306465 [4]: better than R306465
CCCO [propanol]	–	–	–	% metabolism (15 min incubation with microsomes, compound 5 μM): 25%
CN(CCc1c[nH]c2ccccc12)CC1CCN(c2ncc(C(=O)NO)cn2)CC1 [Compound 3]	200 nM	121 °C	–	Enzymatic activity pIC50 C.1.a. [1]: 8.5
COc1cc(N)c(Cl)cc1C(=O)NC1CCN(CCCOc2ccc(F)cc2)CC1OC (stereo not shown) [Cisapride]	–	–	–	% metabolism (human, 15 min, 5 μM): 45%
COc1ccc2c(CCNCC3CCN(c4ncc(C(=O)NO)cn4)CC3)cn(C)c2c1 [Compound 24]	316 nM	160 °C	7.6	solubility [7]: 1600 µg/mL (≈ 3.65 mM)
O=C(NO)c1cnc(N2CCC(NCc3c[nH]c4ccccc34)CC2)nc1 [Compound 7]	794 nM	–	–	Enzymatic activity pIC50 C.1.a. [1]: 8.5
O=C(NO)c1cnc(N2CCN(S(=O)(=O)c3ccc4ccccc4c3)CC2)nc1 [Compound R306465, reference compound]	–	–	–	in vitro half-live [3]: 8 min
O=C(NO)c1cnc(N2CCC(CNCc3c[nH]c4ccc(Cl)cc34)CC2)nc1 [Compound 2]	31.6 nM	205 °C	8.4	–
Cn1cc(CCNCC2CCN(c3ncc(C(=O)NO)cn3)CC2)c2cc(Cl)ccc21 [Compound 26]	31.6 nM	188 °C	>9.0	–

The next lines start with results.

IC50 [2]	melting point [5]	Enzymatic activity pIC50 C.1.b [6]	Structure (SMILES)	other results
501 nM	–	–	Cn1cc(CNC2CCN(c3ncc(C(=O)NO)cn3)CC2)c2ccccc21 [Compound 6]	Enzymatic activity pIC50 C.1.a. [1]: 8.2
7.94 nM	90 °C	9.5	CCN(Cc1cn(CC)c2ccccc12)CC1CCN(c2ncc(C(=O)NO)cn2)CC1 [Compound 20]	solubility [7]: 2700 µg/mL (≈ 6.18 mM)
79.4 nM	80 °C	8.1	Cc1c(CCNCC2CCN(c3ncc(C(=O)NO)cn3)CC2)c2ccccc2n1C [Compound 28]	–
25.1 nM	83 °C	8.5	CN(CCc1cn(C)c2ccccc12)CC1CCN(c2ncc(C(=O)NO)cn2)CC1 [Compound 21]	solubility [7]: 1900 µg/mL (≈ 4.5 mM)
316 nM	–	–	O=C(NO)c1cnc(N2CCC(CNCCc3c[nH]c4ccccc34)CC2)nc1 [Compound 5]	Enzymatic activity pIC50 C.1.a. [1]: 8.6; solubility [7]: 2000 µg/mL (≈ 5.07 mM); in vitro half-live [3]: 60 min
10 nM	171 °C	>9.0	CCCn1cc(CNCC2CCN(c3ncc(C(=O)NO)cn3)CC2)c2cc(Cl)ccc21 [Compound 27]	–
